Assays:
Assay type in all cases: toxicity, cell-based
Fibroblast = assay: Incucyte cell viability with human fibroblast; conditions: 10 µM, compound concentration 10 uM
HEK-293T = assay: Incucyte cell viability with HEK293T; conditions: human, 10 µM, compound concentration 10 uM
U2OS = assay: Incucyte cell viability with U2OS; conditions: human, 10 µM, compound concentration 10 uM
Also: unitless GR value; below 1 slowed growth and below 0 cell loss.

Row | SMILES | Growth Rate (Fibroblast; 0 h, replicate number 1) | Growth Rate (Fibroblast; 6 h, replicate number 2) | Growth Rate (Fibroblast; 12 h, replicate number 2) | Growth Rate (Fibroblast; 18 h, replicate number 1) | Growth Rate (Fibroblast; 18 h, replicate number 2) | Growth Rate (Fibroblast; 24 h, replicate number 2) | Growth Rate (HEK-293T; 0 h, replicate number 2) | Growth Rate (U2OS; 6 h, replicate number 1) | Growth Rate (U2OS; 12 h, replicate number 1) | Growth Rate (Fibroblast; 6 h, replicate number 1) | Growth Rate (HEK-293T; 6 h, replicate number 1) | Growth Rate (HEK-293T; 6 h, replicate number 2) | Growth Rate (HEK-293T; 12 h, replicate number 1) | Growth Rate (HEK-293T; 12 h, replicate number 2) | Growth Rate (HEK-293T; 18 h, replicate number 1) | Growth Rate (HEK-293T; 18 h, replicate number 2) | Growth Rate (HEK-293T; 24 h, replicate number 1) | Growth Rate (HEK-293T; 24 h, replicate number 2) | Growth Rate (U2OS; 0 h, replicate number 1) | Growth Rate (Fibroblast; 24 h, replicate number 1) | other results
1 | COc1ccc(NC(=O)[C@@H]2C[C@H](C)CC[C@H]2C(C)C)cc1 [ACOLTREMON] | 0.31 | -0.34 | 0.74 | 0.98 | 0.61 | 0.67 | 0.02 | -0.13 | 0.93 |  |  |  |  |  |  |  |  |  |  |  | Growth Rate (U2OS; 0 h, replicate number 2): -0.89; Growth Rate (U2OS; 24 h, replicate number 1): 0.94
2 | CC(C)c1ccc(/C=N/NC(=O)c2ccc(O)cc2)cc1 |  | 0.53 | 0.42 |  | 0.57 | 0.46 |  |  |  | -0.99 | 0.39 | 0.04 | 0.85 | 0.36 | 0.85 | 0.58 | 0.81 | 0.63 | -0.47 |  | Growth Rate (HEK-293T; 0 h, replicate number 1): 0.78; Growth Rate (U2OS; 0 h, replicate number 2): -0.95; Growth Rate (U2OS; 24 h, replicate number 2): 0.98
3 | c1ccc(C2CCN(c3cnc4c(N5CCOCC5)nccn34)CC2)cc1 | -0.87 | 0.96 | 0.56 |  | 0.64 |  |  | 0.91 | 0.92 |  | 0.74 | 0.9 | 0.94 |  |  | 0.99 |  |  |  | 1 | Growth Rate (U2OS; 18 h, replicate number 1): 0.9
4 | COCCNc1cc(NC(=O)N2CCCc3cc(CN4CCOCC4=O)c(C=O)nc32)ncc1C#N |  | -1 | 0.58 | -0.07 |  | 0.95 | 0.81 | 0.95 |  | 0.86 | 0.42 |  |  |  |  |  |  |  | -0.03 | 0.7 | Growth Rate (Fibroblast; 12 h, replicate number 1): -1
5 | Cc1csc(S(=O)(=O)N(CC(C)C)c2cc3c(cc2OCc2ccc(C(=O)O)cc2)CCC3)n1 |  | 0.06 | 0.69 |  |  |  | -0.11 |  |  | 0.68 |  |  |  |  |  |  |  |  |  |  | Growth Rate (Fibroblast; 0 h, replicate number 2): -0.95; Growth Rate (HEK-293T; 0 h, replicate number 1): -0.23; Growth Rate (U2OS; 6 h, replicate number 2): 0.87; Growth Rate (U2OS; 12 h, replicate number 2): 0.88; Growth Rate (U2OS; 18 h, replicate number 1): 0.99; Growth Rate (U2OS; 18 h, replicate number 2): 0.83; Growth Rate (U2OS; 24 h, replicate number 1): 0.99; Growth Rate (U2OS; 24 h, replicate number 2): 0.86
6 | CCCCc1oc2ccccc2c1C(=O)c1cc(I)c(OCCN(CC)CC)c(I)c1.Cl [AMIODARONE HYDROCHLORIDE] | 0.24 | -0.16 | -0.27 | -0.02 | -0.44 | -0.43 | -0.99 | 0.43 | 0.98 |  | 0.31 | -0.04 | 0.36 | -0.11 | 0.5 | 0.1 | 0.45 | 0.24 | 0.24 | -0.01 | Growth Rate (Fibroblast; 12 h, replicate number 1): 0.4; Growth Rate (U2OS; 18 h, replicate number 1): 0.77
7 | CCOC(=O)/N=C(\N)c1ccc(OCc2cccc(COc3ccc(C(C)(C)c4ccc(OC(=O)OCC)cc4)cc3)c2)cc1 | -0.98 | -0.28 | 0.87 | 0.66 | 0.76 | 0.79 |  | 0.84 |  | 0.42 | -0.49 | -0.42 | 0.04 | -0.1 | 0.49 | 0.08 | 0.77 | 0.11 |  | 0.41 | Growth Rate (Fibroblast; 12 h, replicate number 1): 0.73

— ChEMBL document CHEMBL5303304, “EUbOPEN Chemogenomics Library - IncuCyte” (2023)
